# Experimental data: PubChem BioAssay AID330 (DTP/NCI, 2004)
# Several values for one entry are separate records, joined by “and”; a condition that tells them apart may be missing. Equal entries are not always repeated. Inconclusive results and toxic doses are left out.
# Tested on: P388 leukemia ip, CD2F1 mice, survival T/C
# Test: NCI In Vivo Anticancer Drug Screen. Data for tumor model P388 Leukemia (intraperitoneal) in CD2F1 (CDF1) mice
# Conditions: endpoint: median survival time, higher = longer survival
# Summary of the method: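 Mice carrying the transplanted tumor received test compound or vehicle. Survival was recorded in each group, and the value is the treated-group measurement divided by that of the vehicle-treated control group.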
# [1] = dose: 50.0 mg/kg/injection, schedule: Q01DX005 (ip), vehicle: Klucel (hydroxypropylcellulose) (HPC)
# [2] = dose: 100.0 mg/kg/injection, schedule: Q01DX005 (ip), vehicle: Klucel (hydroxypropylcellulose) (HPC)
# [3] = dose: 200.0 mg/kg/injection, schedule: Q01DX005 (ip), vehicle: Klucel (hydroxypropylcellulose) (HPC)
# [4] = dose: 25.0 mg/kg/injection, schedule: Q01DX009 (ip), vehicle: saline with Tween-80
# [5] = dose: 50.0 mg/kg/injection, schedule: Q01DX009 (ip), vehicle: saline with Tween-80
# [6] = dose: 200.0 mg/kg/injection, schedule: Q01DX009 (ip), vehicle: saline with Tween-80
# [7] = dose: 100.0 mg/kg/injection, schedule: Q01DX009 (ip), vehicle: saline with Tween-80
# [8] = dose: 50.0 mg/kg/injection, schedule: Q01DX009 (ip), vehicle: Klucel (hydroxypropylcellulose) (HPC)
# [9] = dose: 100.0 mg/kg/injection, schedule: Q01DX009 (ip), vehicle: Klucel (hydroxypropylcellulose) (HPC)
# [10] = dose: 200.0 mg/kg/injection, schedule: Q01DX009 (ip), vehicle: Klucel (hydroxypropylcellulose) (HPC)
# [11] = dose: 50.0 mg/kg/injection, schedule: Q01DX009 (ip), vehicle: saline
# [12] = dose: 100.0 mg/kg/injection, schedule: Q01DX009 (ip), vehicle: saline
# [13] = dose: 200.0 mg/kg/injection, schedule: Q01DX009 (ip), vehicle: saline
# [14] = dose: 0.78 mg/kg/injection, schedule: Q01DX009 (ip), vehicle: Klucel (hydroxypropylcellulose) (HPC)
# [15] = dose: 1.56 mg/kg/injection, schedule: Q01DX009 (ip), vehicle: Klucel (hydroxypropylcellulose) (HPC)
# [16] = dose: 3.13 mg/kg/injection, schedule: Q01DX009 (ip), vehicle: Klucel (hydroxypropylcellulose) (HPC)
# [17] = dose: 6.25 mg/kg/injection, schedule: Q01DX009 (ip), vehicle: Klucel (hydroxypropylcellulose) (HPC)
# [18] = dose: 25.0 mg/kg/injection, schedule: Q01DX009 (ip), vehicle: Klucel (hydroxypropylcellulose) (HPC)
# [19] = dose: 12.5 mg/kg/injection, schedule: Q01DX009 (ip), vehicle: Klucel (hydroxypropylcellulose) (HPC)
smiles,measurement,setting,value
CCc1c(C#N)c(N)c2c(N)c(C(=O)c3ccccc3)sc2c1C,T/C,[1],89 % of control
same,T/C,[2],101 % of control
same,T/C,[3],95 % of control
CC12OC(=O)CC1C(c1ccccc1)(c1ccccc1)O2 (stereo unspecified),T/C,"dose: 60.0 mg/kg/injection, schedule: Q01DX005 (ip), vehicle: saline with Tween-80",100 % of control
same,T/C,"dose: 120.0 mg/kg/injection, schedule: Q01DX005 (ip), vehicle: saline with Tween-80",94 % of control
same,T/C,"dose: 240.0 mg/kg/injection, schedule: Q01DX005 (ip), vehicle: saline with Tween-80",88 % of control
Oc1ccc2ccccc2c1C=Nc1ccc(N=Cc2c(O)ccc3ccccc23)cc1,T/C,"dose: 100.0 mg/kg/injection, schedule: Q01DX001 (ip), vehicle: saline with Tween-80",91 % of control
same,T/C,"dose: 200.0 mg/kg/injection, schedule: Q01DX001 (ip), vehicle: saline with Tween-80",90 % of control
same,T/C,"dose: 400.0 mg/kg/injection, schedule: Q01DX001 (ip), vehicle: saline with Tween-80",91 % of control
CCn1c(Cl)c(/C=N/NC(N)=S)c2cccc(/C=N\NC(N)=S)c21,T/C,"dose: 100.0 mg/kg/injection, schedule: Q01DX001 (ip), vehicle: Klucel (hydroxypropylcellulose) (HPC)",97 % of control
same,T/C,"dose: 200.0 mg/kg/injection, schedule: Q01DX001 (ip), vehicle: Klucel (hydroxypropylcellulose) (HPC)",87 % of control
same,T/C,"dose: 400.0 mg/kg/injection, schedule: Q01DX001 (ip), vehicle: Klucel (hydroxypropylcellulose) (HPC)",97 % of control
CCOC(=O)N1C=CC2(C=C1)CCCCC2,T/C,"dose: 25.0 mg/kg/injection, schedule: Q04DX003 (ip), vehicle: Klucel (hydroxypropylcellulose) (HPC)",101 % of control
same,T/C,"dose: 50.0 mg/kg/injection, schedule: Q04DX003 (ip), vehicle: Klucel (hydroxypropylcellulose) (HPC)",106 % of control
CN(C)C(=S)C(C)(C)C,T/C,"dose: 50.0 mg/kg/injection, schedule: Q01DX005 (ip), vehicle: saline with Tween-80",111 % of control
same,T/C,"dose: 100.0 mg/kg/injection, schedule: Q01DX005 (ip), vehicle: saline with Tween-80",103 % of control
same,T/C,"dose: 200.0 mg/kg/injection, schedule: Q01DX005 (ip), vehicle: saline with Tween-80",106 % of control
CN(C)C1CS(=O)(=O)OC2=C1CCc1sccc12 (stereo unspecified),T/C,"dose: 60.0 mg/kg/injection, schedule: Q01DX005 (ip), vehicle: Klucel (hydroxypropylcellulose) (HPC)",102 % of control
same,T/C,"dose: 120.0 mg/kg/injection, schedule: Q01DX005 (ip), vehicle: Klucel (hydroxypropylcellulose) (HPC)",100 % of control
same,T/C,"dose: 240.0 mg/kg/injection, schedule: Q01DX005 (ip), vehicle: Klucel (hydroxypropylcellulose) (HPC)",97 % of control
O=C(Nc1cccc2cccnc12)C1=C(Nc2cccc3cccnc23)CCC1,T/C,"dose: 6.25 mg/kg/injection, schedule: Q01DX009 (ip), vehicle: saline with Tween-80",107 % of control
same,T/C,"dose: 12.5 mg/kg/injection, schedule: Q01DX009 (ip), vehicle: saline with Tween-80",100 % of control
same,T/C,[4],98 % of control
same,T/C,[5],92 % of control
same,T/C,[6],98 % of control
CCOCC1COc2c(cc3[nH]cc(C(=O)O)c(=O)c3c2Cl)O1 (stereo unspecified),T/C,[5],95 % of control
same,T/C,[7],93 % of control
same,T/C,[6],95 % of control
CCC(O)(C(=O)O)c1cc[n+](Cc2cnc3ccccc3c2)cc1C (stereo unspecified),T/C,"dose: 12.5 mg/kg/injection, schedule: Q01DX005 (ip), vehicle: Klucel (hydroxypropylcellulose) (HPC)",96 % of control
same,T/C,"dose: 25.0 mg/kg/injection, schedule: Q01DX005 (ip), vehicle: Klucel (hydroxypropylcellulose) (HPC)",86 % of control
same,T/C,[1],100 % of control
Nc1ccccc1N,T/C,[4],95 % of control
same,T/C,[7],120 % of control
same,T/C,"dose: 100.0 mg/kg/injection, schedule: Q04DX003 (ip), vehicle: saline sonified",100 % of control
same,T/C,[6],185 % of control
COc1ccc(N=Nc2c(C)nn(C(=O)c3ccncc3)c2C)cc1,T/C,[8],108 % of control
same,T/C,[9],99 % of control
same,T/C,[10],101 % of control
COCCOC(=O)CCn1cc(F)c(=O)[nH]c1=O,T/C,"dose: 30.0 mg/kg/injection, schedule: Q04DX002 (ip), vehicle: saline",92 % of control
same,T/C,"dose: 60.0 mg/kg/injection, schedule: Q04DX002 (ip), vehicle: saline",108 % of control
same,T/C,"dose: 120.0 mg/kg/injection, schedule: Q04DX002 (ip), vehicle: saline",96 % of control
same,T/C,"dose: 200.0 mg/kg/injection, schedule: Q04DX002 (ip), vehicle: saline",91 % of control and 123 % of control
same,T/C,"dose: 240.0 mg/kg/injection, schedule: Q04DX002 (ip), vehicle: saline",96 % of control
same,T/C,"dose: 400.0 mg/kg/injection, schedule: Q04DX002 (ip), vehicle: saline",93 % of control
same,T/C,"dose: 600.0 mg/kg/injection, schedule: Q04DX002 (ip), vehicle: saline",91 % of control
same,T/C,"dose: 800.0 mg/kg/injection, schedule: Q04DX002 (ip), vehicle: saline",118 % of control
same,T/C,"dose: 1600.0 mg/kg/injection, schedule: Q04DX002 (ip), vehicle: saline",155 % of control
COc1cc(C[C@H](CO)[C@@H](CO)Cc2ccc3c(c2)OCO3)cc(OC)c1OC,T/C,"dose: 6.25 mg/kg/injection, schedule: Q04DX002 (ip), vehicle: saline with Tween-80",95 % of control
same,T/C,"dose: 12.5 mg/kg/injection, schedule: Q04DX002 (ip), vehicle: saline with Tween-80",102 % of control
same,T/C,"dose: 25.0 mg/kg/injection, schedule: Q04DX002 (ip), vehicle: saline with Tween-80",106 % of control
CN(N=O)C1=NC(C)(CCl)P(=O)(NNc2ncccn2)O1 (stereo unspecified),T/C,"dose: 60.0 mg/kg/injection, schedule: Q01DX005 (ip), vehicle: saline",108 % of control
same,T/C,"dose: 120.0 mg/kg/injection, schedule: Q01DX005 (ip), vehicle: saline",110 % of control
COc1cccc(/C=C/c2ccnnc2)c1,T/C,[11],96 % of control
same,T/C,[12],95 % of control
same,T/C,[13],95 % of control
COc1cc2c3cc1Oc1c(OC)c(OC)cc4c1C(Cc1ccc(O)c(c1)-c1cc(ccc1OC)CC3N(C)CC2)N(C)CC4 (stereo unspecified),T/C,[14],106 % of control
same,T/C,[15],87 % of control
same,T/C,[16],104 % of control
same,T/C,[17],104 % of control
Clc1ccc2nc(Cl)c3ccccc3c2c1,T/C,[14],88 % of control and 93 % of control
same,T/C,[15],87 % of control and 94 % of control
same,T/C,[16],94 % of control
same,T/C,[17],120 % of control and 89 % of control and 95 % of control
same,T/C,[18],89 % of control
same,T/C,[8],87 % of control
CCCCC#CCOCC(O)CCl (stereo unspecified),T/C,[19],100 % of control
same,T/C,[18],100 % of control
same,T/C,[8],98 % of control
same,T/C,[9],100 % of control
same,T/C,[10],103 % of control
CC(C)(C)OC(=O)NC(CCCNC(=O)OCc1ccccc1)C(=O)O (stereo unspecified),T/C,[1],100 % of control
same,T/C,[2],100 % of control
same,T/C,[3],99 % of control
CCn1c2ccccc2c2cc(N=Nc3cc4ccccc4cc3O)ccc21,T/C,[8],104 % of control
same,T/C,[9],100 % of control
same,T/C,[10],104 % of control
CC(=O)c1cccc(NC(=O)C2C(=O)C(=O)N(c3cccc(C(C)=O)c3)C2=O)c1 (stereo unspecified),T/C,[8],91 % of control
same,T/C,[9],104 % of control
same,T/C,[10],101 % of control
COC1C(O)=C2C(=O)OC(C)(O)/C=C/C=C\C=C/C=C/C(c3ccccc3)NC(=O)/C=C/C=C/C=C/C=C/C2(C)C1O (stereo unspecified),T/C,[19],103 % of control and 86 % of control
CC1(C)OCC(C2NC2C2COC(C)(C)O2)O1 (stereo unspecified),T/C,[11],108 % of control
same,T/C,[12],110 % of control
same,T/C,[13],104 % of control
CC#CS(=O)C#CC,T/C,"dose: 3.12 mg/kg/injection, schedule: Q01DX009 (ip), vehicle: distilled water + alcohol",105 % of control
same,T/C,"dose: 6.25 mg/kg/injection, schedule: Q01DX009 (ip), vehicle: distilled water + alcohol",105 % of control
OCCSC(=S)Nc1ccc(Cl)c(Cl)c1,T/C,[11],96 % of control
same,T/C,[12],103 % of control
c1ccc(-c2n[nH]c3ccccc23)cc1,T/C,"dose: 25.0 mg/kg/injection, schedule: Q04DX003 (ip), vehicle: saline with Tween-80",101 % of control
same,T/C,"dose: 50.0 mg/kg/injection, schedule: Q04DX003 (ip), vehicle: saline with Tween-80",110 % of control
same,T/C,"dose: 100.0 mg/kg/injection, schedule: Q04DX003 (ip), vehicle: saline with Tween-80",101 % of control
same,T/C,"dose: 200.0 mg/kg/injection, schedule: Q04DX003 (ip), vehicle: saline with Tween-80",99 % of control
